Consider 31 compounds from patent publication US10111874B2, “Combination therapies for treatment of cancer” (Araxes Pharma LLC, priority 2014, dated 2018).

In the assay the target is T1, KRAS G12C 1-169, his-tagged protein, GDP-loaded (Homo sapiens, UniProt P01116, G12C).
T1 construct: KRAS G12C 1-169, his-tagged protein, GDP-loaded
Description: Biochemical assay: covalent binding to KRAS G12C analyzed by mass spectrometry. Further: test concentration or dose not given here.

Setting [1] is: compounds 48-246, measured at 2 h.
The mark [2] stands for this setting: compounds 1-47, measured at 24 h.
[3] abbreviates: compounds 247-342, measured at 30 min.

T1 sequence (P01116 1-169 isoform P01116-2 G12C): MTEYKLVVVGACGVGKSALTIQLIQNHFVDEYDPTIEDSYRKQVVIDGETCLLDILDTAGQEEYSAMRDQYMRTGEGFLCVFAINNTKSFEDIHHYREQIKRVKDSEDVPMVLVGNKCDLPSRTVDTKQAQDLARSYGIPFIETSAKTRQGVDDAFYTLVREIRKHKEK

As for `C=CC(=O)N1CCN(c2nc(OC)nc3cc(-c4ccccc4)c(Cl)cc23)CC1` [Compound I-94, 1-(4-(6-chloro-2-methoxy-7-phenylquinazolin-4-yl)piperazin-1-yl)prop-2-en-1-one], under setting [1], the Binding % result is “++ (++indicates binding activity greater than 25% and up to 50%)”. For `C=CC(=O)N1CCN(c2ccnc3cc(Cl)c(-c4ccccc4Cl)cc23)CC1` [Compound I-27, 1-(4-(7-chloro-6-(2-chlorophenyl)quinolin-4-yl)piperazin-1-yl)prop-2-en-1-one], the Binding % result under setting [2] was “++ (++indicates binding activity greater than 25% and up to 50%)”. In the case of `C=CC(=O)N1CCN(c2ncnc3cc(-c4cccc5[nH]ncc45)c(Cl)cc23)CC1` [Compound I-167, 1-(4-(6-chloro-7-(1H-indazol-4-yl)quinazolin-4-yl)piperazin-1-yl)prop-2-en-1-one], the Binding % entry under setting [1] is on record as “+ (+indicates binding activity from 5% to 25%)”.

Take `C=CC(=O)N1CC(N2CCN(C(=O)CNc3cc(O)cc(Cl)c3)CC2)C1` [II-33, 1-(3-(4-(2-(3-chloro-5-hydroxyphenylamino)-acetyl)piperazin-1-yl)azetidin-1-yl)prop-2-en-1-one]: under “determined at 24 hrs”, the Binding % result was “+ (+indicates binding activity from 5% to 15%)”. With `C=CC(=O)N1CCN(c2ncnc3cc(-c4ccccc4CC4CC4)c(Cl)cc23)CC1` [Compound I-156, 1-(4-(6-chloro-7-(2-(cyclopropylmethyl)phenyl)quinazolin-4-yl)piperazin-1-yl)prop-2-en-1-one], the Binding % result under setting [1] was “++ (++indicates binding activity greater than 25% and up to 50%)”.

With `C=CC(=O)N1CCN(c2ncnc3cc(-c4ccc(Cl)cc4O)c(Cl)cc23)CC1` [Compound I-117, 1-(4-(6-chloro-7-(4-chloro-2-hydroxyphenyl)quinazolin-4-yl)piperazin-1-yl)prop-2-en-1-one], under setting [1], the Binding % entry is “+++ (+++indicates binding activity greater than 50% and up to 75%)”. Still for that read-out and setting: to `C=CC(=O)N1CCN(c2ncnc3cc(-c4cc(OC(F)(F)F)ccc4F)c(Cl)cc23)CC1` [Compound I-141, 1-(4-(6-chloro-7-(2-fluoro-5-(trifluoromethoxy)phenyl)quinazolin-4-yl)piperazin-1-yl)prop-2-en-1-one] belongs “+ (+indicates binding activity from 5% to 25%)”. For the compound `C=CC(=O)N1CCN(c2ncnc3cc(-c4cccc5c4CCCC5)c(Cl)cc23)CC1` [Compound I-148, 1-(4-(6-chloro-7-(5,6,7,8-tetrahydronaphthalen-1-yl)quinazolin-4-yl)piperazin-1-yl)prop-2-en-1-one], under setting [1], the Binding % entry was “+++ (+++indicates binding activity greater than 50% and up to 75%)”. As for `C=CC(=O)N1CCN(c2ncnc3c(F)c(-c4c(C)cccc4Cl)c(Cl)cc23)CC1` [Compound I-290, 1-(4-(6-chloro-7-(2-chloro-6-methylphenyl)-8-fluoroquinazolin-4-yl)piperazin-1-yl)prop-2-en-1-one], the Binding % result under setting [3] was “+++ (+++indicates binding activity greater than 50% and up to 75%)”. In the case of `C=CC(=O)N1CCN(c2c(C#N)cnc3cc(-c4cc(O)ccc4Cl)c(Cl)cc23)CC1` [Compound I-184, 4-(4-acryloylpiperazin-1-yl)-6-chloro-7-(2-chloro-5-hydroxyphenyl)quinoline-3-carbonitrile], the Binding % entry under setting [1] is listed as “++++ (++++indicates binding activity greater than 75%)”. On to `C=CC(=O)N1CCN(c2ncnc3cc(-c4ccc(Cl)cc4Cl)c(Cl)cc23)CC1` [Compound I-102, 1-(4-(6-chloro-7-(2,4-dichlorophenyl)quinazolin-4-yl)piperazin-1-yl)prop-2-en-1-one], for which the Binding % entry under setting [1] was “+++ (+++indicates binding activity greater than 50% and up to 75%)”.

As for `C=CC(=O)N1CCN(c2ncnc3cc(-c4ccccc4)c(CC)cc23)CC1` [Compound I-93, 1-(4-(6-ethyl-7-phenylquinazolin-4-yl)piperazin-1-yl)prop-2-en-1-one], the Binding % entry under setting [1] is “+ (+indicates binding activity from 5% to 25%)”. As for `C=CC(=O)N1CCN(c2ncnc3cc(-c4c(F)cccc4C(N)=O)c(Cl)cc23)CC1` [Compound I-232, 2-(4-(4-acryloylpiperazin-1-yl)-6-chloroquinazolin-7-yl)-3-fluorobenzamide], the Binding % result under setting [1] is “+ (+indicates binding activity from 5% to 25%)”. Same read-out and setting: then `C=CC(=O)N1CCN(c2ncnc3cc(-n4cc(Cl)ccc4=O)c(Cl)cc23)CC1` [Compound I-177, 1-(4-(4-acryloylpiperazin-1-yl)-6-chloroquinazolin-7-yl)-5-chloropyridin-2(1H)-one], with “+ (+indicates binding activity from 5% to 25%)”. Turning to `C=CC(=O)N1CCN(c2ncnc3cc(-c4c(O)cccc4C#N)c(Cl)cc23)CC1` [Compound I-265, 2-(4-(4-acryloylpiperazin-1-yl)-6-chloroquinazolin-7-yl)-3-hydroxybenzonitrile], the Binding % entry under setting [3] is reported as “+ (+indicates binding activity from 5% to 25%)”. For `C=CC(=O)N1CCN(c2ncnc3cc(-c4cccc5ncoc45)c(Cl)cc23)CC1` [Compound I-129, 1-(4-(7-(benzo[d]oxazol-7-yl)-6-chloroquinazolin-4-yl)piperazin-1-yl)prop-2-en-1-one], the Binding % entry under setting [1] is “+ (+indicates binding activity from 5% to 25%)”. On to `C=CC(=O)N1CC(N2CCN(C(=O)OC(C)(C)C)CC2)C1` [Example 50, tert-butyl 4-(1-acryloylazetidin-3-yl)piperazine-1-carboxylate], for which the Binding % result under setting [1] is given as “+ (+indicates binding activity from 5% to 25%)”. For the compound `C=CC(=O)N1CCN(c2ncnc3c(F)c(-c4ccc(F)cc4C(F)(F)F)c(Cl)cc23)CC1` [Compound I-275, 1-(4-(6-chloro-8-fluoro-7-(4-fluoro-2-(trifluoromethyl)phenyl)quinazolin-4-yl)piperazin-1-yl)prop-2-en-1-one], the Binding % result under setting [3] was “++ (++indicates binding activity greater than 25% and up to 50%)”. On the same count and under the same terms, then `C=CC(=O)N1CCN(c2ncnc3c(F)c(-c4cc(-c5c[nH]cn5)ccc4F)c(Cl)cc23)CC1` [Compound I-281, 1-(4-(6-chloro-8-fluoro-7-(2-fluoro-5-(1H-imidazol-4-yl)phenyl)quinazolin-4-yl)piperazin-1-yl)prop-2-en-1-one], with “++ (++indicates binding activity greater than 25% and up to 50%)”. Consider `C=CC(=O)N1CCC(Nc2ncnc3cc(Cl)c(-c4ccccc4Cl)cc23)CC1` [Compound I-2, 1-(4-(7-chloro-6-(2-chlorophenyl)quinazolin-4-ylamino)piperidin-1-yl)prop-2-en-1-one], for which the Binding % result under setting [2] is listed as “+ (+indicates binding activity from 5% to 25%)”. For `C=CC(=O)N1CCN(C(=O)c2cc(-c3ccc(Cl)cc3Cl)c[nH]2)CC1` [III-32, 1-(4-(4-(2,4-Dichlorophenyl)-1H-pyrrole-2-carbonyl)piperazin-1-yl)prop-2-en-1-one], the Binding % entry (determined at 24 hrs) is listed as “++++ (++++indicates binding activity greater than 30%)”. With `C=CC(=O)N1CC(N2CCN(C(=O)Cc3c[nH]c4cc(Cl)c(Cl)cc34)CC2)C1` [II-61, 1-(3-(4-(2-(5,6-Dichloro-1H-indol-3-yl)acetyl)piperazin-1-yl)azetidin-1-yl)prop-2-en-1-one], the Binding % entry (determined at 2 hrs) is on record as “+ (+indicates binding activity from 5% to 20%)”. On to `C=CC(=O)N1CCN(c2ncnc3c(Cl)c(-c4ccccc4F)c(Cl)cc23)CC1` [Compound I-210, 1-(4-(6,8-dichloro-7-(2-fluorophenyl)quinazolin-4-yl)piperazin-1-yl)prop-2-en-1-one], for which, under setting [1], the Binding % entry is given as “++++ (++++indicates binding activity greater than 75%)”. With `C=CC(=O)N1CCN(c2ncnc3c(F)c(-c4c[nH]c5ccccc45)c(Cl)cc23)CC1` [Compound I-288, 1-(4-(6-chloro-8-fluoro-7-(1H-indol-3-yl)quinazolin-4-yl)piperazin-1-yl)prop-2-en-1-one], the Binding % entry under setting [3] was “++ (++indicates binding activity greater than 25% and up to 50%)”.

For the compound `C=CC(=O)N1CCN(c2ncnc3cc(-c4ccc(F)cc4)c(Cl)cc23)CC1` [Compound I-83, 1-(4-(6-chloro-7-(4-fluorophenyl)quinazolin-4-yl)piperazin-1-yl)prop-2-en-1-one], the Binding % entry under setting [1] is “++ (++indicates binding activity greater than 25% and up to 50%)”. For the compound `C=CC(=O)N1CCN(c2cnnc3cc(-c4c(O)ccc5ccccc45)c(Cl)cc23)CC1` [Compound I-258, 1-(4-(6-chloro-7-(2-hydroxynaphthalen-1-yl)cinnolin-4-yl)piperazin-1-yl)prop-2-en-1-one], the Binding % entry under setting [3] is “++ (++indicates binding activity greater than 25% and up to 50%)”.

Consider `C=CC(=O)N1CCN(c2ncnc3c(F)c(-c4ccc(F)cc4F)c(Cl)cc23)CC1` [Compound I-224, 1-(4-(6-chloro-7-(2,4-difluorophenyl)-8-fluoroquinazolin-4-yl)piperazin-1-yl)prop-2-en-1-one], for which the Binding % result under setting [1] is “+++ (+++indicates binding activity greater than 50% and up to 75%)”. Regarding `C=CC(=O)N1CCN(c2ncnc3cc(Cl)c(-c4cccc(C#N)c4)cc23)CC1` [Compound I-19, 3-(4-(4-acryloylpiperazin-1-yl)-7-chloroquinazolin-6-yl)benzonitrile], the Binding % entry under setting [2] was “++ (++indicates binding activity greater than 25% and up to 50%)”. On to `C=CC(=O)N1CCN(c2ncnc3cc(-c4cc(C(C)(C)O)ccc4F)c(Cl)cc23)CC1` [Compound I-267, 1-(4-(6-chloro-7-(2-fluoro-5-(2-hydroxypropan-2-yl)phenyl)quinazolin-4-yl)piperazin-1-yl)prop-2-en-1-one], for which the Binding % result under setting [3] is “+ (+indicates binding activity from 5% to 25%)”.

Regarding `C=CC(=O)N1CCC(Nc2n[nH]c3cc(Cl)c(-c4ccccc4Cl)cc23)CC1` [Compound I-31, 1-(4-(6-chloro-5-(2-chlorophenyl)-1H-indazol-3-ylamino)piperidin-1-yl)prop-2-en-1-one], under setting [2], the Binding % result is “+ (+indicates binding activity from 5% to 25%)”. Regarding `C=CC(=O)N1CCN(c2ncnc3cc(-c4cccc5ncccc45)c(Cl)cc23)CC1` [Compound I-135, 1-(4-(6-chloro-7-(quinolin-5-yl)quinazolin-4-yl)piperazin-1-yl)prop-2-en-1-one], the Binding % entry under setting [1] is listed as “+ (+indicates binding activity from 5% to 25%)”.
